This note sets out measurements from patent US20180284095A1, “BIOMARKERS ASSOCIATED WITH LSD1 INHIBITORS AND USES THEREOF” (Oryzon Genomics, S.A., priority 2015, published 2018).

What all share (type): in vivo, mouse
For one assay, the system named is TUBB3. As to the kind of experiment: Microarray gene expression, hippocampus of SAMP8 mice (Example 3), housekeeping gene. Particulars: SAMP8 female pool. On the procedure: (§1) Total RNA was extracted from samples using the RNeasy extraction kit (Qiagen). The quality and concentration of the RNA was analyzed using the Agilent 2100 bioanalyzer and NanoDrop™ ND-1000 (Thermo Scientific). Samples with RNA integrity number (RIN)<6.0 were discarded. Total RNA (0.5 μg) amplification and labelling with Cy3 or Cy5 was carried out using the Eberwein mRNA amplification procedure (Van Gelder et al, Proc Natl Acad Sci USA 1990, 87:1663-1667) employing the MessageAmp™ aRNA amplification kit from Ambion (Applied Biosystems) following the manufacturer's instructions with minor modifications. As hybridization controls, plant mRNAs were transcribed from a plasmid containing the Zea mays Xet (xyloglucan endo-transglycosylase) cDNA and from a plasmid containing the Zea mays Zmmyb42 cDNA, independently prepared Cy3 and Cy5 labelled aRNA from these two RNAs using the Eberwein mRNA amplification procedure (as disclosed in Cerdà et al, Gen Comp Endocrinol 2008, 156:470-481).
(§2) The Cy3- and Cy5-labelled cRNAs and spikes were combined and hybridized to the microarray described in Example 2.6 for 17 h at 60° C. using Agilent's gaskets G2534-60002, G2534A hybridization chambers and DNA Hybridization Oven G2545A, according to the manufacturer's instructions. More specifically, equal amounts of Cy3 and Cy5 labeled Xet aRNA as well as equal amounts of Cy3 and Cy5 labeled Zmmyb42 aRNA were spiked into each mixture hybridized to the array. Arrays were washed and raw data were obtained using Agilent's DNA Microarray Scanner G2505B and Feature Extraction software (v10.1). The raw fluorescence intensity data were processed using applicant's proprietary software, and consists in the following operations:
(§3) Data normalization was carried out by an improved version of the nonlinear Q-splines normalization method (Workman et al., Genome Biol 2002, 3(9):research0048.1-0048.16). Normalization results were presented graphically as MA plots, as first described by Dudoit et al (Dudoit et al, Statistica Sinica, 2002, 12:111-139). Each point corresponds to a probe of the DNA array. M values (vertical axis) are the log-differential expression ratios. A values (horizontal axis) are the log-intensities of the spots. M and A are calculated from the Cy5 and Cy3 intensity values as of each spot. The DNA Array data is normalized using an improved version of non-linear Q-Splines normalization described by Workman et al., Genome Biol 2002, 3(9):research0048.1-0048.16. This process is useful to correct the deviation of the M values from the statistical assumption that most of the spots have M=0 in MA plots. The method allows the adjustment of all M values to form a cloud centered at M=0 in all intensity ranges. The data used to calculate the normalization fitting curve is the totality of the raw measurement dataset, excluding the signals for the probes for the spiked-in plant RNA controls and negative controls. In order to be able to normalize properly the data among all the experiments, the probe-set must include an important group of genes that should have no change (M=0) in the experiment. The normalization function is then applied to all the data, including controls.
(§4) Normalized and log-transformed data were used to calculate log 2 (sample/control) and Fold Change (FC) values. No background subtraction was applied to the signal intensity values during data processing, permitting robust selection of differentially expressed genes with low expression levels at the cost of potential sub-estimation of change when intensity levels are close to the array background level.
(§5) The technical replicate analysis is the statistical processing of the microarray data. Replicates were calculated to measure oligo replicates on an array or between replicates of experiments on different arrays (i.e. hybridization of the same sample). […]

The subject of a further assay is TUBB2C. The assay is described as above. The conditions noted are these: SAMP8 female pool. On the procedure: as §1, §2, §3, §4, §5
For the next assay, the system named is S100A9. As to the kind of experiment: qRT-PCR, hippocampus of SAMP8 mice (Example 5). Particulars: 2 or 4 months. The source says:
(§6) qRT-PCR is a variant of the PCR (Polymerase Chain Reaction) method that permits the simultaneous exponential amplification and detection of specific cDNA fragments. The Taqman gene expression assays employ the principle of doubly labeled hydrolysis probes. The probes are marked with a fluorescent moiety at their 5′ end and with a quencher moiety at the 3′ end, which prevents the generation of fluorescence according to the Förster energy transfer principle.
(§7) During the amplification process, the hydrolysis probe hybridizes to its complementary sequence in the target amplicon. During each cycle, the Taq polymerase initiates the production of a copy of the target sequence starting from the primer. When the Taq polymerase reaches the hydrolysis probe, its 5′-3′ exonuclease activity fragments the hydrolysis probe, and liberates the fluorescent group from the quencher moiety, resulting in the emission of a fluorescent signal.
(§8) In the exponential phase of the amplification reaction, the intensity of the fluorescence is directly proportional to the quantity of PCR product formed. The LightCycler® 480 Software determines the “crossing point” (Cp), i.e. the point where the reaction's fluorescence reaches the maximum of the second derivative of the amplification curve, which corresponds to the point where the acceleration of the fluorescence signal is at its maximum. […] The 2-Cp values are proportional to the target mRNA concentration in the original RNA sample.
(§9) Samples from animals receiving treatment for 2 months and 4 months were processed and statistically analyzed together. After extraction (RNeasy Mini KIT; QIAGEN), total RNA was reverse transcribed to obtain 1st strand cDNA (High Capacity RNA-to-cDNA Master Mix; Applied Biosystems). A serial dilution of 1st strand product from hippocampus was used to perform triplicate qRT-PCR (Taqman gene expression assay, Life technologies) reactions to analyze the Cp values of S100A8 and S100A9. Cp increase was normalized relative to the expression level of an endogenous reference gene (GADPH).
In general terms: Quantitative PCR measures a nucleic acid by following its amplification.

The subject of the next assay is S100A8. As to the kind of experiment: qRT-PCR, hippocampus of SAMP8 mice (Example 5). The conditions noted are these: SAMP8 female mice.
From the text: as §6, §7, §8, §9

With “(−) 5-((((trans)-2-(4-(benzyloxy)phenyl)cyclopropyl)amino)methyl)-1,3,4-oxadiazol-2-amine [Compound 1]”, the “Hybridization signal sample_Cy5 TUBB3” value in the assay on TUBB3 (HD 3.2 mg/kg/day) amounted to 3168.4; in the assay with TUBB3 (LD 0.96 mg/kg/day), 3002.3. Also, the “log2 (sample/control) TUBB3” value is 0.05769 in the assay with TUBB3 (HD 3.2 mg/kg/day vs SAMP8 VEH) and 0.04498 in the assay on TUBB3 (LD 0.96 mg/kg/day vs SAMP8 VEH). Besides, the “Hybridization signal sample_Cy5 TUBB2C” value in the assay on TUBB2C (HD 3.2 mg/kg/day) is 9173; in the assay with TUBB2C (LD 0.96 mg/kg/day) it was 9392.47. For the same substance, the entries for the “log2 (sample/control) TUBB2C” value in the assay with TUBB2C (HD 3.2 mg/kg/day vs SAMP8 VEH) and in the assay with TUBB2C (LD 0.96 mg/kg/day vs SAMP8 VEH) were 0.1327 and 0.1199, respectively. Moreover, the “S100A9 expression (Δ Cp, qRT-PCR)” value in the assay on S100A9 (SAMP8 females, 0.96 mg/kg/day (p<0.001) and 3.2 mg/kg/day (p<0.001)) was “down-regulated S100A9 expression in a dose-dependent fashion”; in the assay on S100A9 (SAMP8 females, 0.96 mg/kg/day (p<0.001) and 3.2 mg/kg/day (p<0.001), listed as compound 1) it was “reduction of S100A9 expression”; in the assay with S100A9 (SAMP8 males, 0.96 mg/kg (p<0.001), 0.96 mg/kg), “down-regulated S100A9 expression”; in the assay with S100A9 (SAMP8 males, 0.96 mg/kg (p<0.001), listed as compound 1, 0.96 mg/kg) it was “reduction of S100A9 expression”. In the assay on S100A8, the “S100A8 expression (qRT-PCR)” value is reported as “down-regulated S100A8 expression tendency”.
